Source: paper PMC6434714 (Journal of natural products, 2018)
≈ marks a conversion by molar mass, not a printed value.

Key:
[1] = tested on: S. aureus subsp. aureus (Newman strain); assay: Antimicrobial activity; conditions: for activity against S. aureus (in words): growth inhibition
[2] = molecular target: A. aeolicus MraY (AaMraY) (Aquifex aeolicus, UniProt O66465); assay: Fluorescence-based in vitro MraY assay, A. aeolicus MraY; assay type: biochemical
Staphylococcal = conditions: cited from earlier work
E. coli imp mutant = conditions: cited from earlier work
S. aureus = conditions: cited from earlier work

Sequence of A. aeolicus MraY (AaMraY) (O66465 whole entry): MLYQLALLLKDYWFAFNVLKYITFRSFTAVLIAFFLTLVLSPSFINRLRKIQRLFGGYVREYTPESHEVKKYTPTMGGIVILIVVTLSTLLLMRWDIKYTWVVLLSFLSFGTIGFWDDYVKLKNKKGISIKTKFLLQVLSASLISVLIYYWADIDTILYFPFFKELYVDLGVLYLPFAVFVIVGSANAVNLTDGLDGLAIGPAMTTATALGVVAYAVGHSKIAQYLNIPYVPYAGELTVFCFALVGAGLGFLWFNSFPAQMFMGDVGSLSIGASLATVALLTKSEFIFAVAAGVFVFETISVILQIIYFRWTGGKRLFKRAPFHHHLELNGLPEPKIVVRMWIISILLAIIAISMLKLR

CO[C@H]1[C@H](O[C@H]([C@H]2O[C@@H](n3ccc(=O)[nH]c3=O)[C@H](O)[C@@H]2O)[C@H](NCCCNC(=O)[C@@H](NC(=O)[C@@H](NC(=O)N[C@H](C(=O)O)C(C)C)[C@@H]2CCNC(=N)N2)[C@@H](OC(=O)CCCCCCCCCCCCC(C)C)C(C)C)C(=O)O)O[C@H](CN)[C@H]1O [Compound 1, muraymycin B8]
MIC ([1]; Staphylococcus aureus, NEWMAN, 16 h, read-out: S. aureus growth inhibition MIC, Newman strain, 37 °C, 16 h): 2 to 6 µg/mL (≈ 1.69 to 5.07 µM) | IC50 [2]: 0.068 nM

CO[C@H]1[C@H](O[C@H]([C@H]2O[C@@H](n3ccc(=O)[nH]c3=O)[C@H](O)[C@@H]2O)[C@H](NCCCNC(=O)[C@@H](NC(=O)[C@@H](NC(=O)N[C@H](C(=O)O)C(C)C)[C@@H]2CCNC(=N)N2)[C@@H](OC(=O)CCCCCCCCCCC(C)C)C(C)C)C(=O)O)O[C@H](CN)[C@H]1O [Compound 2, muraymycin B9]
S. aureus growth inhibition MIC ([1]; Newman strain, 37 °C, 16 h): 2 to 6 µg/mL

CO[C@H]1[C@H](O[C@H]([C@H]2O[C@@H](n3ccc(=O)[nH]c3=O)[C@H](O)[C@@H]2O)[C@H](NCCCNC(=O)[C@@H](NC(=O)[C@@H](NC(=O)N[C@H](C(=O)O)C(C)C)[C@@H]2CCNC(=N)N2)[C@@H](O)C(C)C)C(=O)O)O[C@H](CNC(C)=O)[C@H]1O [Compound 3, 16-N-acetyl-muraymycin C1]
activity against S. aureus (in words) [1]: inactive

CO[C@H]1[C@H](O[C@H]([C@H]2O[C@@H](n3ccc(=O)[nH]c3=O)[C@H](O)[C@@H]2O)[C@H](NCCCNC(=O)[C@@H](NC(=O)[C@@H](NC(=O)N[C@H](C(=O)O)C(C)C)[C@@H]2CCNC(=N)N2)[C@@H](OC(=O)CCCCCCCCCCCCN(O)C(=N)N)C(C)C)C(=O)O)O[C@H](CN)[C@H]1O [Muraymycin A1]
MIC against Staphylococcal (Staphylococcal): 2 to 16 µg/mL | MIC against E. coli imp mutant (E. coli imp mutant): < 0.03 µg/mL

CO[C@H]1[C@H](O[C@H]([C@H]2O[C@@H](n3ccc(=O)[nH]c3=O)[C@H](O)[C@@H]2O)[C@H](NCCCNC(=O)[C@@H](NC(=O)[C@@H](NC(=O)N[C@H](C(=O)O)C(C)C)[C@@H]2CCN=C(N)N2)[C@@H](OC(=O)CCCCCCC(C)C)C(C)C)C(=O)O)O[C@H](CN)[C@H]1O [muraymycin B2]
MIC against S. aureus (S. aureus): > 32 µg/mL

CO[C@H]1[C@H](O[C@H]([C@H]2O[C@@H](n3ccc(=O)[nH]c3=O)[C@H](O)[C@@H]2O)[C@H](NCCCNC(=O)[C@@H](NC(=O)[C@@H](NC(=O)N[C@H](C(=O)O)C(C)C)[C@@H]2CCN=C(N)N2)[C@@H](OC(=O)CCCCC(C)C)C(C)C)C(=O)O)O[C@H](CN)[C@H]1O [muraymycin B6]
MIC against S. aureus (S. aureus): > 32 µg/mL

CO[C@H]1[C@H](O[C@H]([C@H]2O[C@@H](n3ccc(=O)[nH]c3=O)[C@H](O)[C@@H]2O)[C@H](NCCCNC(=O)[C@@H](NC(=O)[C@@H](NC(=O)N[C@H](C(=O)O)C(C)C)[C@@H]2CCNC(=N)N2)[C@@H](O)C(C)C)C(=O)O)O[C@H](CN)[C@H]1O [muraymycin C1]
activity against S. aureus (in words) [1]: inactive
